Results from patent US20170320870A1 (Medical Research Council Technology, priority 2009, published 2017).

What follows are compounds tested against T1, LRRK2 wild type (recombinant human, catalytic domain amino acids 970-2527, GST-tagged) (Homo sapiens, UniProt Q5S007) (assay: LRRK2 wild type protein kinase assay ([γ-33P] ATP, peptide substrate […]), IC50). Details: LRRK2 (variant not given); read-out: Potency score, LRRK2 IC50.
T1 construct: The wild type used was recombinant human, catalytic domain (amino acids 970-2527) GST-tagged, expressed in insect cells; GST; purchased Invitrogen Corporation PV4873; host or cells: insect cells
T1 sequence (Q5S007 970-2527): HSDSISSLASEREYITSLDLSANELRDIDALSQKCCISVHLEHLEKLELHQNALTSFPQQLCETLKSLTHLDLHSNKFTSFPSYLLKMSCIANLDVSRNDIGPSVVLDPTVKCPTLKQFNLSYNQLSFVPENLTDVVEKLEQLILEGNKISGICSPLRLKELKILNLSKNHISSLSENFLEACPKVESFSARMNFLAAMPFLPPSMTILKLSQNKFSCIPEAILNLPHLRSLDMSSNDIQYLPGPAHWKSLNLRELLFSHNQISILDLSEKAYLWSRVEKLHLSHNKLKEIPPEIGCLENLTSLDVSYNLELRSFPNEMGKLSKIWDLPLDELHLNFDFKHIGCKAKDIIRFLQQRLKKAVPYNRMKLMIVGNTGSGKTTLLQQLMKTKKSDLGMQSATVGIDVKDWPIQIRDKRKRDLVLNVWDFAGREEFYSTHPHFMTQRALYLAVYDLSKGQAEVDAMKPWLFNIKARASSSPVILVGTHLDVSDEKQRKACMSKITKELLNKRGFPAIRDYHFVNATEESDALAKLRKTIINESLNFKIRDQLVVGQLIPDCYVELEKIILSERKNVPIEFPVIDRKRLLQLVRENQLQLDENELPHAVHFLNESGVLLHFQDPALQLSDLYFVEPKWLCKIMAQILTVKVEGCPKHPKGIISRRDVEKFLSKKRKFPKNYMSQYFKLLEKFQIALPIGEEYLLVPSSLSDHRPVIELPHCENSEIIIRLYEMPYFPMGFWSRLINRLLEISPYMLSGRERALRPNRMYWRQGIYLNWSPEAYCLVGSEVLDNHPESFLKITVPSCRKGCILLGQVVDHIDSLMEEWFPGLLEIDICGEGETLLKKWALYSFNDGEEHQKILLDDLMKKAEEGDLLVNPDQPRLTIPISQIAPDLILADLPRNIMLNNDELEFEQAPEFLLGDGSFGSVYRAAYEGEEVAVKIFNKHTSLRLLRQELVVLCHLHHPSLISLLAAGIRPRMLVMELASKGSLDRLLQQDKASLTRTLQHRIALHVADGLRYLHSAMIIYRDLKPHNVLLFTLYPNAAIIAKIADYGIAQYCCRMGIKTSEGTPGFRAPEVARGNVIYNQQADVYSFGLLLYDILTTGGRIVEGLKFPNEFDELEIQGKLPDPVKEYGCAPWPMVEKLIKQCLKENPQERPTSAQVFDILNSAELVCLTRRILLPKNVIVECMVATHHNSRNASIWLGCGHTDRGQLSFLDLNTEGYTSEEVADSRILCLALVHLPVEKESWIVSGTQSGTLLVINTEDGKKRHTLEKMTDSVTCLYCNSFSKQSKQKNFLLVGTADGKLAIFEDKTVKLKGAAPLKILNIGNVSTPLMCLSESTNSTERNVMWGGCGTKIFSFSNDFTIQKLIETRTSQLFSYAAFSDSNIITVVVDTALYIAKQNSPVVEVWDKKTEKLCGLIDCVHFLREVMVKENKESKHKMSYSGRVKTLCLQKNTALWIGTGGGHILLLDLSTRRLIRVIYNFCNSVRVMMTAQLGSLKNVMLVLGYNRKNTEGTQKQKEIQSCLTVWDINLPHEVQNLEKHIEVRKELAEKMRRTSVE
Format: biochemical
Summary of the method: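 Insect-cell-expressed enzyme (~5 nM), no activation, incubated 180 min at ~21 °C in 50 mM Tris-HCl pH 7.5, 0.1 mM EGTA, 1 mM DTT, 10 mM MgCl2 with 100 μM peptide substrate and [γ-33P]ATP. Reaction stopped with orthophosphoric acid, captured on P81 filters and counted; IC50 from 10 concentrations in duplicate.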

Row | SMILES | IC50 [nM]
1 | FC(F)(F)c1ccc(-c2n[nH]c3ccnc(NC4CCCCC4)c23)cc1 [Example 157] | 1000 to 10000
2 | Cc1n[nH]c2ccnc(Nc3ccc(N4CCOCC4)nc3)c12 [Example 63, (3-Methyl-1H-pyrazolo[4,3-c]pyridin-4-yl)-(6-morpholin-4-yl-pyridin-3-yl)-amine] | 100 to 1000
3 | Fc1cc(-c2n[nH]c3ccnc(NC4CCCCC4)c23)cc(F)c1F [Example 163, Cyclohexyl-[3-(3,4,5-trifluoro-phenyl)-1H-pyrazolo[4,3-c]pyridin-4-yl]-amine] | 1000 to 10000
4 | Fc1cccc(Nc2nccc3[nH]ncc23)c1 [Example 132, (3-Fluoro-phenyl)-(1H-pyrazolo[4,3-c]pyridin-4-yl)-amine] | 100 to 1000
5 | O=C(Nc1cccc(CCc2n[nH]c3ccnc(NC4CCCCC4)c23)c1)c1ccc(N2CCOCC2)cc1 [Example 227, N-{3-[2-(4-Cyclohexylamino-1H-pyrazolo[4,3-c]pyridin-3-yl)-ethyl]-phenyl}-4-morpholin-4-yl-benzamide] | < 100
6 | Cc1n[nH]c2ccnc(Nc3ccc(-c4cnco4)cc3)c12 [Example 87, (3-Methyl-1H-pyrazolo[4,3-c]pyridin-4-yl)-(4-oxazol-5-yl-phenyl)-amine] | 100 to 1000
7 | O=C(Nc1ccc(CCc2n[nH]c3ccnc(NC4CCCCC4)c23)cc1)c1cocn1 [Example 268, Oxazole-4-carboxylic acid {4-[2-(4-cyclohexylamino-1H-pyrazolo[4,3-c]pyridin-3-yl)-ethyl]-phenyl}-amide] | < 100
8 | Cc1n[nH]c2ccnc(C(=O)NC3CCCCC3)c12 [Example 100, 3-Methyl-1H-pyrazolo[4,3-c]pyridine-4-carboxylic acid cyclohexylamide] | 1000 to 10000
9 | O=C(Nc1ccc2nccnc2c1)c1ccc(CCc2n[nH]c3ccnc(NC4CCCCC4)c23)cc1 [Example 254, 4-[2-(4-Cyclohexylamino-1H-pyrazolo[4,3-c]pyridin-3-yl)-ethyl]-N-quinoxalin-6-yl-benzamide] | < 100
10 | Cc1n[nH]c2ccnc(Nc3ccc(C(=O)N4CCOCC4)cc3)c12 [Example 112, [4-(3-Methyl-1H-pyrazolo[4,3-c]pyridin-4-ylamino)-phenyl]-morpholin-4-yl-methanone] | 100 to 1000
11 | O=C(CCc1n[nH]c2ccnc(O)c12)N1CCC[C@H](c2ccccc2)C1 [Example 257, 3-(4-Hydroxy-1H-pyrazolo[4,3-c]pyridin-3-yl)-1-((R)-3-phenyl-piperidin-1-yl)-propan-1-one] | 1000 to 10000
12 | C[C@@H]1CCCN(C(=O)CCc2n[nH]c3ccnc(NC4CCCCC4)c23)C1 [Example 243, 3-(4-Cyclohexylamino-1H-pyrazolo[4,3-c]pyridin-3-yl)-1-((R)-3-methyl-piperidin-1-yl)-propan-1-one] | < 100

Other lines, results leading:

Row | IC50 [nM] | SMILES
13 | 100 to 1000 | CC(=O)N1CCC(Nc2nccc3[nH]nc(C)c23)CC1 [Example 101, 1-[4-(3-Methyl-1H-pyrazolo[4,3-c]pyridin-4-ylamino)-piperidin-1-yl]-ethanone]
14 | 1000 to 10000 | Cc1n[nH]c2ccnc(N[C@H](C)c3ccccc3)c12 [Example 19, (3-Methyl-1H-pyrazolo[4,3-c]pyridin-4-yl)-((R)-1-phenyl-ethyl)-amine]
15 | 100 to 1000 | Cc1n[nH]c2ccnc(Nc3cccc(C(N)=O)c3)c12 [Example 76, 3-(3-Methyl-1H-pyrazolo[4,3-c]pyridin-4-ylamino)-benzamide]
16 | 100 to 1000 | Cc1n[nH]c2ccnc(NC3CCN(C)CC3)c12 [Example 13, (1-Methyl-piperidin-4-yl)-(3-methyl-1H-pyrazolo[4,3-c]pyridin-4-yl)-amine]
17 | 100 to 1000 | Cc1n[nH]c2ccnc(NC3CCC3)c12 [Example 22, Cyclobutyl-(3-methyl-1H-pyrazolo[4,3-c]pyridin-4-yl)-amine]
18 | 1000 to 10000 | Cc1n[nH]c2ccnc(N[C@@H](CO)C(C)C)c12 [Example 30, (R)-3-Methyl-2-(3-methyl-1H-pyrazolo[4,3-c]pyridin-4-ylamino)-butan-1-ol]
19 | 100 to 1000 | Cc1n[nH]c2ccnc(NC(C)C)c12 [Example 36, Isopropyl-(3-methyl-1H-pyrazolo[4,3-c]pyridin-4-yl)-amine]
20 | 1000 to 10000 | CCN(CC)CCNc1nccc2[nH]nc(C)c12 [Example 14, N,N-diethyl-N′-(3-methyl-1H-pyrazolo[4,3-c]pyridin-4-yl)-ethane-1,2-diamine]
21 | 1000 to 10000 | Cc1n[nH]c2ccnc(NC(C)CC(C)C)c12 (centres unmarked) [Example 45, (1,3-Dimethyl-butyl)-(3-methyl-1H-pyrazolo[4,3-c]pyridin-4-yl)-amine]
22 | < 100 | Cc1n[nH]c2ccnc(NCCc3ccccc3Cl)c12 [Example 330, [2-(2-Chloro-phenyl)-ethyl]-(3-methyl-1H-pyrazolo[4,3-c]pyridin-4-yl)-amine]
23 | 1000 to 10000 | Cc1n[nH]c2ccnc(Nc3ccccn3)c12 [Example 94, (3-Methyl-1H-pyrazolo[4,3-c]pyridin-4-yl)-pyridin-2-yl-amine]
24 | 100 to 1000 | Cc1n[nH]c2ccnc(Nc3ccc4ncoc4c3)c12 [Example 349, Benzoxazol-6-yl-(3-methyl-1H-pyrazolo[4,3-c]pyridin-4-yl)-amine]
25 | 1000 to 10000 | COCCNc1nccc2[nH]nc(C)c12 [Example 6, (2-Methoxy-ethyl)-(3-methyl-1H-pyrazolo[4,3-c]pyridin-4-yl)-amine]
26 | < 100 | Cc1ccc(Nc2nccc3[nH]nc(C)c23)cc1 [Example 318, (4-Methyl-phenyl)-(3-methyl-1H-pyrazolo[4,3-c]pyridin-4-yl)-amine]
